Data taken from patent US12377112B2, “Methods of treating neurocognitive disorders, chronic pain and reducing inflammation” (priority 2019, dated 2025).

Tested on: healthy participants
Test: Phase 1 study: Rapid Visual Information Processing (RVPA)
Assay type: in vivo, human
Conditions: Treatment V6 Day 28 (remote)
Source text: In some embodiments, the Rapid Visual Information Processing (RVP) test is utilized to evaluate the safety and efficacy of psilocybin. The RVP is a measure of sustained attention outputting measures of response accuracy, target sensitivity and reaction times. In this test, the study subject is required to monitor a stream of digits from 2 to 9 for specific sequences (e.g., 3-5-7) and to acknowledge detection of the sequence by touching the on-screen response button as quickly as possible after presentation of the third digit. Digits are presented pseudorandomly to create the possibility of ‘false alarm’ responses in which the first 2 digits of a sequence are not followed by a true target, e.g., when 3 is followed by a 5, but not then by a 7. In order to complete the task successfully study subjects must sustain attention to the white box in which the digits appear. Performance on this task is measured by the speed of response to the presentation of the final digit of a target, as well as the study subject's ability to detect specified sequences. […]
To assess the effects of psilocybin on cognitive processing, a clinical trial testing psilocybin in healthy participants was performed. […] Rapid visual information processing (RVP), a sensitive measure of sustained attention, was assessed twice prior to dosing (Day 0): during screening (Day −2) and at baseline (Day −1). […]

## CN(C)CCc1c[nH]c2cccc(OP(=O)(O)O)c12 [Psilocybin, psilocybin]
10 mg single oral
  RVPA difference of least squares mean compared to placebo group, LS mean Estimate: 0.01096
25 mg single oral
  RVPA difference of least squares mean compared to placebo group, LS mean Estimate: 0.01225
